Experimental data taken from the NIST ThermoML archive (doi:10.1016/j.jct.2013.06.018).
± gives the expanded uncertainty stated by the source.

Experiment: excess molar enthalpy (molar enthalpy of mixing); xn = mol fraction of the nth substance listed
Conditions: 298.15 K, 101 kPa, Liquid, Calvet calorimetry

CCCCCCC [heptane] + CCCO
Conditions	excess molar enthalpy [kJ/mol]
x2 = 0.0699	0.428 ± 0.009
x2 = 0.1182	0.522 ± 0.011
x2 = 0.2088	0.62 ± 0.013
x2 = 0.3839	0.661 ± 0.014
x2 = 0.4743	0.635 ± 0.014
x2 = 0.5332	0.595 ± 0.013
x2 = 0.6744	0.48 ± 0.01
x2 = 0.7196	0.433 ± 0.009
x2 = 0.7698	0.379 ± 0.008
x2 = 0.7701	0.37 ± 0.008
x2 = 0.8193	0.301 ± 0.007
x2 = 0.8566	0.253 ± 0.006
x2 = 0.8909	0.202 ± 0.005
x2 = 0.8974	0.194 ± 0.004
x2 = 0.9343	0.129 ± 0.003
x2 = 0.9675	0.067 ± 0.002
